According to paper PMC12542965, “Remolding laccase for whole-cell and in vivo modulation of dopamine signal” (Science Advances, 2025):

What was measured:
[1] = target: T1, native SLAC (bacterial small laccase) (Streptomyces coelicolor, UniProt Q9XAL8); experiment: UV-vis quinone formation at […] nm; format: biochemical; settings: 50 mM sodium phosphate, O2 as co-substrate, pH 6.0 to 8.0 (pH series); native Cu-reconstituted enzyme; T1 Cu quantified at 590 nm
T1 construct: gene SCO6712; reconstituted with CuCl2 (T1 Cu and T2/T3 Cu trinuclear cluster); trimer
T1 sequence (Q9XAL8 34-343): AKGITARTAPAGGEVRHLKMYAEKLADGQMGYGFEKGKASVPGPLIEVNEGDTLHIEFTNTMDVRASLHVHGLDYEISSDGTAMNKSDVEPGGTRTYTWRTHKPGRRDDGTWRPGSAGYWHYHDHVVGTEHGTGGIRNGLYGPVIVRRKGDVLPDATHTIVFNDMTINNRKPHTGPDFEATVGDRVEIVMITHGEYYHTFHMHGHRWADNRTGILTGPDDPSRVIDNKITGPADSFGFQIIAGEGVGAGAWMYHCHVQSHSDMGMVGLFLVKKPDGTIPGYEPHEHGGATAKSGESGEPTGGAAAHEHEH

[2] = target: T2, RuCu-SLAC (remolded laccase) (Streptomyces coelicolor, UniProt Q9XAL8); experiment: UV-vis quinone formation at […] nm; format: biochemical; settings: 50 mM sodium phosphate, O2 as co-substrate, pH 6.0 to 8.0 (pH series); Ru-Cu artificial metal centre; T1 Cu quantified at 590 nm
T2 construct: gene SCO6712; artificial metalloenzyme: same apo-SLAC polypeptide (E. coli BL21(DE3), N-terminal GST tag cut off by PPase) loaded with Ru3+ then Cu2+; homodimer with one Ru and three Cu; Ru-Cu binuclear centre replaces the Cu trinuclear cluster
T2 sequence (Q9XAL8 34-343): T1 sequence (Q9XAL8 34-343)

In the case of NCCc1ccc(O)c(O)c1 [dopamine], the Michaelis-Menten constants [1] is reported as “Michaelis-Menten constants and Kcat (turnover number) of both enzymes with a dopamine substrate” and the Michaelis-Menten constants [2] is reported as “Michaelis-Menten constants and Kcat (turnover number) of both enzymes with a dopamine substrate”.
